Each structure is given as a SMILES string. Some results are limits rather than exact numbers.

Data on six compounds can be found in patent publication US8697641B2, “4-amino-4-oxobutanoyl peptide cyclic analogues, inhibitors of viral replication” (Achillion Pharmaceuticals, Inc., priority 2008, dated 2014).

The subject of this experiment is Hepatitis C replicon. Kind of experiment: HCV replicon assay (NPT ELISA readout) in Huh-7 replicon-containing cells. In kind it is cell-based, Hepatitis C virus. As to conditions: Hepatitis C virus, 72 h; HCV replicon in Huh-7 cells, three days incubation. In short, it runs like this:
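Replication is measured as neomycin phosphotransferase level by captured ELISA after three days of compound exposure (typically 10 to 0.03 μM, 6 concentrations) at 37 °C. Cells are Huh-7 harbouring an HCV replicon with neo gene and NS3-NS5B; interferon alpha is the positive control.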
As to `COc1ccc2c(O[C@@H]3C[C@H]4C(=O)N[C@]5(C(=O)NS(=O)(=O)C6CC6)C[C@H]5/C=C\CCCCC[C@H](CC(=O)N5CCCCC5)C(=O)N4C3)cc(-c3nc(C(C)C)cs3)nc2c1` [Compound 118, (2R,6R,14aR,16aS,Z)-N-(cyclopropylsulfonyl)-2-(2-(4-isopropylthiazol-2-yl)-7-methoxyquinolin-4-yloxy)-5,16-dioxo-6-(2-oxo-2-(piperidin-1-yl)ethyl)-1,2,3,5,6,7,8,9,10,11, 13a,14,14a,15,16,16a-hexadecahydrocyclopropa [e]pyrrolo[1,2-a][1,4] diazacyclopentadecine-14a-carboxamide], the EC50 (commonly the concentration needed to bring the measured effect to its halfway point) is < 1000 nM.
With `COc1ccc2c(O[C@@H]3C[C@H]4C(=O)N[C@]5(C(=O)NS(=O)(=O)C6CC6)C[C@H]5/C=C\CCCCC[C@H](CC(=O)N5CCCC5C(F)(F)F)C(=O)N4C3)cc(-c3ccccn3)nc2c1Cl` (stereo partly drawn) [Compound 95, (2R,6R,14aR,16aS,Z)-2-(8-chloro-7-methoxy-2-(pyridin-2-yl)quinolin-4-yloxy)-N-(cyclopropylsulfonyl)-5,16-dioxo-6-(2-oxo-2-(2-(trifluoromethyl)pyrrolidin-1-yl)ethyl)-1,2,3,5,6,7,8,9,10,11, 13a,14,14a,15,16,16a-hexadecahydrocyclopropa [e]pyrrolo[1,2-a][1,4] diazacyclopentadecine-14a-carboxamide] the figure was < 1000 nM; with `COc1ccc2c(O[C@@H]3C[C@H]4C(=O)NC(C)(C(=O)O)C/C=C\CCCCC[C@H](CC(=O)N5CCCCC5)C(=O)N4C3)cc(-c3ccccc3)nc2c1` (stereo partly drawn) [Compound 64, (12R,16R,17aS,Z)-16-(7-methoxy-2-phenylquinolin-4-yloxy)-3-methyl-1,13-dioxo-12-(2-oxo-2-(piperidin-1-yl)ethyl)-2,3,4,7,8,9,10,11, 12,13,15,16,17,17a-tetradecahydro-1H-pyrrolo[1,2-a][1,4] diazacyclopentadecine-3-carboxylic acid], 1000 to 10000 nM.
For `COc1ccc2c(O[C@@H]3C[C@H]4C(=O)N[C@@](C)(C(=O)NS(=O)(=O)C5CC5)CCCCCCCC[C@H](CC(=O)N5CCCCC5)C(=O)N4C3)cc(-c3ccccc3)nc2c1` [Compound 54, (3R,12R,16R,17aS)-N-(cyclopropylsulfonyl)-16-(7-methoxy-2-phenylquinolin-4-yloxy)-3-methyl-1,13-dioxo-12-(2-oxo-2-(piperidin-1-yl)ethyl)hexadecahydro-1H-pyrrolo[1,2-a][1,4] diazacyclopentadecine-3-carboxamide], the EC50 was < 1000 nM.
For `COc1ccc2c(O[C@@H]3C[C@H]4C(=O)N[C@]5(C(=O)NS(=O)(=O)C6CC6)C[C@H]5/C=C\CCCCC[C@H](CC(=O)N5CC[C@@H](N)C5)C(=O)N4C3)cc(-c3ccccc3)nc2c1` [Compound 106, (2R,6R,14aR,16aS, Z)-6-(2-((R)-3-aminopyrrolidin-1-yl)-2-oxoethyl)-N-(cyclopropylsulfonyl)-2-(7-methoxy-2-phenylquinolin-4-yloxy)-5,16-dioxo-1,2,3,5,6,7,8,9,10,11, 13a,14,14a,15,16,16a-hexadecahydrocyclopropa [e]pyrrolo[1,2-a][1,4] diazacyclopentadecine-14a-carboxamide], the EC50 was < 1000 nM.
With `COc1ccc2c(O[C@@H]3C[C@H]4C(=O)N[C@]5(C(=O)NS(=O)(=O)C6CC6)C[C@H]5/C=C\CCCCC[C@H](CC(=O)N5CCCC(F)(F)C5)C(=O)N4C3)cc(-c3csc(C(C)C)n3)nc2c1C` [Compound 133, (2R,6R,14aR,16aS,Z)-N-(cyclopropylsulfonyl)-6-(2-(3,3-difluoropiperidin-1-yl)-2-oxoethyl)-2-(2-(2-isopropylthiazol-4-yl)-7-methoxy-8-methylquinolin-4-yloxy)-5,16-dioxo-1,2,3,5,6,7,8,9,10,11, 13a,14,14a,15,16,16a-hexadecahydrocyclopropa [e]pyrrolo[1,2-a][1,4] diazacyclopentadecine-14a-carboxamide] the figure was < 1000 nM.
